Measured values as given in article PMC10675597, “Design, Synthesis, and Antisickling Investigation of a Thiazolidine Prodrug of TD-7 That Prolongs the Duration of Action of Antisickling Aromatic Aldehyde” (Pharmaceutics, 2023).

Assays:
[1] = test system: SS cells (homozygous sickle cell blood); experiment: In-vitro time-dependent RBC sickling inhibition under hypoxia; assay type: cell-based, human; conditions: 2 mM, SS cells 20% hematocrit, hypoxia (4% oxygen/96% nitrogen)
Description: Red blood cell sickling inhibition studies with Pro-7 and the control TD-7 was conducted using previously reported procedure. Blood suspensions from subjects with homozygous SCD (hematocrit 20%) were incubated under air in the absence or presence of test compounds at 37 °C for 1 h to ensure that binding has attained equilibrium. […] Aliquot samples were fixed with 2% glutaraldehyde solution without exposure to air, and then subjected to microscopic morphological analysis.
Human normal whole blood was used to assess the degree of Hb modification and Hb oxygen affinity (P50 shift), while sickle blood was used to investigate RBC sickling inhibition. […] The results summarized in Table 1 and Figure 4A–C show time-dependent effects for all three pharmacodynamic activities. […] Even at the end of the 24-h experiment, Pro-7 activity was still increasing.

[2] = biological target: T1, Hb in human normal whole blood (Homo sapiens, UniProt P69905); experiment: In-vitro time-dependent oxygen equilibrium study (P50 shift); assay type: cell-based; conditions: 2 mM, normal whole blood 30% hematocrit
T1 construct: normal whole blood (AA) was collected from adult donors; from tissue; host or cells: normal (AA) human whole blood from adult donors, 30% hematocrit
T1 sequence (P69905 2-142 limits assumed): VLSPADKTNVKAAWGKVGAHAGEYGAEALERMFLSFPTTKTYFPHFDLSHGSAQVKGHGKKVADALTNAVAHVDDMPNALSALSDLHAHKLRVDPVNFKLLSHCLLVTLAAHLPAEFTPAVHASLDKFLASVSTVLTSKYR
T1 sequence (P68871 2-147 partner limits assumed): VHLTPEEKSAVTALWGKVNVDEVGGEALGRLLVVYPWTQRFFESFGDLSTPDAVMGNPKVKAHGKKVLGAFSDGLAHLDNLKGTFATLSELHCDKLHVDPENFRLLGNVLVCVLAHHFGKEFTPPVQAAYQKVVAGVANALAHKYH
Description: An oxygen equilibrium curve study was conducted in a time-dependent manner to determine the effect and duration of Pro-7 on Hb affinity for oxygen (P50 shift) following standard procedure. Pro-7, along with the controls TD-7 and DMSO were used for the studies with normal whole blood sample (30% hematocrit). Each compound was incubated with the blood at a final concentration of 2 mM, and aliquot samples were taken at 1, 3, 6, 12 and 24 h and further incubated in IL 237 tonometer (Instrumentation Laboratories, Inc., Lexington, MA, USA) for 10 min at 37 °C, and allowed to equilibrate at oxygen tensions 6, 20, and 40 mmHg. The samples were then aspirated into a Radiometer ABL 800 Automated Blood Gas Analyzer (Copenhagen, Denmark ) to determine the pH, partial pressure of CO2 (pCO2), partial pressure of oxygen (pO2), and Hb oxygen saturation values (SO2). The measured values of pO2 (mmHg) and SO2 at each pO2 value were then subjected to a non-linear regression analysis using the program Scientist (Micromath, Salt Lake City, UT, USA) to estimate P50 as a measure of Hb oxygen affinity as previously reported.
(§1) Human normal whole blood was used to assess the degree of Hb modification and Hb oxygen affinity (P50 shift), while sickle blood was used to investigate RBC sickling inhibition. Pro-7 and the positive control TD-7 were incubated with normal whole blood suspensions. […] For the sickling inhibition study, Pro-7 and the positive control TD-7 were incubated with SS blood suspensions under hypoxic conditions (2.5% O2/97.5% N2), and aliquot blood samples were drawn at three time points (1, 3 and 6 h) and used for assessing RBC morphology. The results summarized in Table 1 and Figure 4A–C show time-dependent effects for all three pharmacodynamic activities. […] Even at the end of the 24-h experiment, Pro-7 activity was still increasing.

[3] = In-vitro stability in different pH buffers (aldehyde peak absorbance at 349 nm); assay type: physicochemical; conditions: for Stability (absorbance of aldehyde peak at 349 nm): 1 mM, 37 °C
Description: The stability of Pro-7 and the control TD-7 in different pH buffers (PBS buffer at pH 7.4, KCl·HCl buffer at pH 2.0, and Tris buffer at pH 8.0) was evaluated over time as previously reported. The ionic strength of all buffers was kept constant at 150 mM. A 200 mM stock solution of each compound was prepared using anhydrous DMSO. 1 mM solutions of each of the test compounds TD-7 and Pro-7 were prepared in duplicate for each of the three different pH buffers. […]
An in-vitro time-dependent (1–96 h) stability study of Pro-7 was conducted to inform the formulation of the prodrug. The study was conducted at three different pHs: 2.0, 7.4 and 8.0, which mimic stomach, blood and intestinal pH conditions, respectively. The presence of TD-7 or the rate of appearance of TD-7 upon dissociation of Pro-7 was monitored at 349 nm spectrophotometrically.

[4] = biological target: T1, Hb in human normal whole blood; experiment: In-vitro time-dependent Hb modification (Hb adduct formation), cation-exchange HPLC; assay type: cell-based; conditions: 2 mM, normal whole blood 30% hematocrit
Description: Pro-7 and the control TD-7 were used to conduct time-dependent Hb modification (Hb adduct formation) studies using normal whole blood as previously reported. A 200 mM stock solution of each compound was made with DMSO. In a 96-well 1.2 mL polypropylene deep-well plate (Thermo Scientific, Hampshire, UK), 2.0 mM concentration of each compound was added to 600 μL of whole blood (30% hematocrit), which was then incubated at 37 °C for 24 h with shaking (at 140 rpm). A control sample was supplemented only with an equivalent volume of DMSO. At different time points (0–24 h), 50 μL aliquots of this mixture were withdrawn from each well using a multichannel pipette and added to respective tubes containing 50 μL of sodium cyanoborohydride (NaBH3CN) and sodium borohydride (NaBH4) mixture (1:1 v/v 50 mM stock) to terminate the Schiff-base reaction, fix the Schiff-base Hb adducts and reduce the free reactive aldehyde. After mixing, the tubes were stored immediately at −80 °C until ready for analysis using cation-exchange HPLC (Hitachi D-7000 Series, Hitachi Instruments, Inc. San Jose, CA, USA) for Hb-compound adduct formation. The observed Hb adducts in %Hb modification were plotted as a function of time (h).
as §1

## 1-(2-(3-((6-(hydroxymethyl)pyridin-2-yl)methoxy)-5 methoxyphenyl)thiazolidin-4-yl)propan-1-one [Pro-7]
[1]; 1 h
  %Sickling Inhibition: 12.53%
[1]; 3 h
  %Sickling Inhibition: 40.76%
[1]; 6 h
  %Sickling Inhibition: 52.04%
[2]; 1 h
  %Hb O2 Affinity (P50 Shift): 6.48 ± 1.54%
[2]; 3 h
  %Hb O2 Affinity (P50 Shift): 13.57 ± 5.53%
[2]; 6 h
  %Hb O2 Affinity (P50 Shift): 21.64 ± 10.93%
[2]; 12 h
  %Hb O2 Affinity (P50 Shift): 41.04 ± 10.93%
[2]; 24 h
  %Hb O2 Affinity (P50 Shift): 43.87 ± 3.22%
[3]; pH 2.0
  degradation to release TD-7 (in words): very fast degradation
  time for formation of TD-7 from Pro-7 to be almost completed: ≤ 1 h
[3]; pH 2.0, 0 hr
  Stability (absorbance of aldehyde peak at 349 nm): 1.22 ± 0.4
[3]; pH 2.0, 1 hr
  Stability (absorbance of aldehyde peak at 349 nm): 3.16 ± 0.2
[3]; pH 2.0, 2 hr
  Stability (absorbance of aldehyde peak at 349 nm): 3.17 ± 0.09
[3]; pH 2.0, 3 hr
  Stability (absorbance of aldehyde peak at 349 nm): 3.36 ± 0.03
[3]; pH 2.0, 6 hr
  Stability (absorbance of aldehyde peak at 349 nm): 3.27 ± 0.02
[3]; pH 2.0, 24 hr
  Stability (absorbance of aldehyde peak at 349 nm): 3.05 ± 0.00
[3]; pH 7.4, 0 hr
  Stability (absorbance of aldehyde peak at 349 nm): 0.14 ± 0.01
[3]; pH 7.4, 1 hr
  Stability (absorbance of aldehyde peak at 349 nm): 0.16 ± 0.00
[3]; pH 7.4, 2 hr
  Stability (absorbance of aldehyde peak at 349 nm): 0.17 ± 0.00
[3]; pH 7.4, 3 hr
  Stability (absorbance of aldehyde peak at 349 nm): 0.09 ± 0.09
[3]; pH 7.4, 6 hr
  Stability (absorbance of aldehyde peak at 349 nm): 0.22 ± 0.00
[3]; pH 7.4, 24 hr
  Stability (absorbance of aldehyde peak at 349 nm): 0.49 ± 0.00
[3]; pH 7.4, 28 hr
  Stability (absorbance of aldehyde peak at 349 nm): 0.55 ± 0.00
[3]; pH 7.4, 48 hr
  Stability (absorbance of aldehyde peak at 349 nm): 0.98 ± 0.02
[3]; pH 7.4, 56 hr
  Stability (absorbance of aldehyde peak at 349 nm): 1.10 ± 0.03
[3]; pH 7.4, 72 hr
  Stability (absorbance of aldehyde peak at 349 nm): 1.77 ± 0.07
[3]; pH 7.4, 96 hr
  Stability (absorbance of aldehyde peak at 349 nm): 2.59 ± 0.03
[3]; pH 8.0, 0 hr
  Stability (absorbance of aldehyde peak at 349 nm): 0.14 ± 0.00
[3]; pH 8.0, 1 hr
  Stability (absorbance of aldehyde peak at 349 nm): 0.12 ± 0.00
[3]; pH 8.0, 2 hr
  Stability (absorbance of aldehyde peak at 349 nm): 0.15 ± 0.00
[3]; pH 8.0, 3 hr
  Stability (absorbance of aldehyde peak at 349 nm): 0.17 ± 0.00
[3]; pH 8.0, 6 hr
  Stability (absorbance of aldehyde peak at 349 nm): 0.24 ± 0.01
[3]; pH 8.0, 24 hr
  Stability (absorbance of aldehyde peak at 349 nm): 0.64 ± 0.16
[3]; pH 8.0, 28 hr
  Stability (absorbance of aldehyde peak at 349 nm): 1.00 ± 0.05
[3]; pH 8.0, 48 hr
  Stability (absorbance of aldehyde peak at 349 nm): 1.33 ± 0.32
[3]; pH 8.0, 72 hr
  Stability (absorbance of aldehyde peak at 349 nm): 1.89 ± 0.04
[3]; pH 8.0, 96 hr
  Stability (absorbance of aldehyde peak at 349 nm): 1.86 ± 0.01
[3]; pHs 7.4 and 8.0
  degradation to release TD-7 (in words): slow degradation
  time for TD-7 to be detected in a significant amount: ~ 6 h
  time to full dissociation into TD-7: approximately four days
[4]; 0 h
  %Hb Modification (Hb Adduct): 0.00 ± 0.00%
[4]; 1 h
  %Hb Modification (Hb Adduct): 7.10 ± 4.40%
[4]; 2 h
  %Hb Modification (Hb Adduct): 14.30 ± 6.80%
[4]; 4 h
  %Hb Modification (Hb Adduct): 17.50 ± 7.10%
[4]; 8 h
  %Hb Modification (Hb Adduct): 29.70 ± 10.9%
[4]; 12 h
  %Hb Modification (Hb Adduct): 41.20 ± 15.8%
[4]; 24 h
  %Hb Modification (Hb Adduct): 54.80 ± 21.8%
